Results reported in patent US20100280084A1, “Cyp1B1 Genotype” (Government of the US, as represented by the Secret ary, …, priority 2005, published 2010).

What was measured:
[1] = test system: androgen-independent prostate cancer (AIPC); experiment: Survival by CYP1B1*3 genotype in men with AIPC treated with docetaxel (Kaplan-Meier); type: in vivo, human; settings: for overall median survival: docetaxel 30 mg/m^2 1-hour i.v. weekly for 3 weeks, 1-week rest
Method: FIG. 1 depicts Kaplan-Meier curves of overall survival (o-CYP1B1*3; *-CYP1B1*1/*1 and CYP1B1*1/*3) (A) and overall progression free survival (B) in men with prostate cancer treated with docetaxel as a function of CYP1B1*3 genotype. All patients received docetaxel as a 1-hour intravenous infusion at a dose of 30 mg/m^2 in cycles of once every week for 3 consecutive weeks, followed by a 1-week rest period (n=25). DNA was extracted from a […] using a QiaBlood extraction kit (Qiagen, Valencia, Calif.) and stored at 4° C. The CYP1B1*3 alleles were analyzed by direct sequencing. The primers used for sequencing and amplification of the variant were as follows: F4-[…]; R4-[…]; F5-[…]; R5-[…]. A 50-μl reaction was prepared for polymerase chain reaction (PCR) amplification using primers F4 and R4. The reaction consisted of 1×PCR buffer, 2 mM of each of the four deoxynucleotidetriphosphates (dNTPs), 1.5 mM magnesium chloride, and 1 unit of Platinum Taq DNA polymerase. PCR conditions were: 94° C. for 5 minutes, followed by 40 cycles of 94° C. for 30 seconds, 66° C. for 30 seconds, and 72° C. for 30 seconds, with a final 7-minute cycle at 72° C. Direct nucleotide sequencing PCR was conducted using the Big Dye Terminator Cycle Sequencing Ready Reaction kit V1.1 on an ABI Prism 310 Genetic Analyzer (Applied BioSystems, Foster City, Calif.).
The CYP1B1 genotypes on germline DNA obtained from 25 men with AIPC treated with docetaxel (Aventis Pharmaceuticals, Bridgewater, N.J.) were retrospectively evaluated. The subjects were administered docetaxel intravenously over 1-hour at a dose of 30 mg/m^2 in whom detailed survival data were available (Table 1). Inclusion and exclusion criteria have been previously published (12). The study protocol was approved by the Institutional Review Board (Bethesda, Md.), and all patients provided written informed consent. DNA was isolated from whole blood and variants in the CYP1B1 gene were analyzed by direct nucleotide sequencing (see Legend to FIG. 1). The association between genotypes and progression-free survival and overall survival was determined by the Kaplan-Meier method using a two-tailed log rank test. The homozygous wild-type (CYP1B1*1/*1) and heterozygous variant (CYP1B1*1/*3) genotypes were pooled in the analysis on the basis of similarity of outcomes. The associated p-value was adjusted to be two times the unadjusted value to account for the two implicit comparisons made in determining the desirability of combining groups. Progression was censored at the off study date if a patient was removed for toxicity or another reason.

[2] = Docetaxel clearance as a function of CYP1B1*3 genotype in 23 patients; settings: human, in vivo, P=0.39
Method: To exclude the possibility that the observed decreased survival time for subjects carrying the CYP1B1*3/*3 variant was the result of altered exposure to docetaxel, the pharmacokinetic data generated in a previous study (15) in 23 patients treated with docetaxel as a function of CYP1B1*3 genotype was analyzed.

CYP1B1 [3] = target: T1, CYP1B1 (Homo sapiens, UniProt Q16678); settings: in vitro studies (reference 16); cited from earlier work
T1 sequence (Q16678 1-543): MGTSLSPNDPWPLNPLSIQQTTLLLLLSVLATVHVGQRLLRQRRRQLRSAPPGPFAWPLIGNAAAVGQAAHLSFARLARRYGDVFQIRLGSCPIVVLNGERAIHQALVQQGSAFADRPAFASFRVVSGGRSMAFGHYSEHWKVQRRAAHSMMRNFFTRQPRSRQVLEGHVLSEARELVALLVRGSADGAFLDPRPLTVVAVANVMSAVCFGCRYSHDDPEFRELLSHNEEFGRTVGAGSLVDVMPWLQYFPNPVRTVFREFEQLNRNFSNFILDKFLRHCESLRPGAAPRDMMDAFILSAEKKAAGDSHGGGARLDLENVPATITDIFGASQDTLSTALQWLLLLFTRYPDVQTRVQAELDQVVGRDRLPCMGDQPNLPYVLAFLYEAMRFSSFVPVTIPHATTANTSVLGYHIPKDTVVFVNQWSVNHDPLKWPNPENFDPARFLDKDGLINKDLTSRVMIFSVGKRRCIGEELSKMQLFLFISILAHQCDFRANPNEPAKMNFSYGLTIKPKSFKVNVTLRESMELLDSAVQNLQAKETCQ

CYP1B1 [4] = target: T1, CYP1B1; settings: previous preclinical studies (references 2, 3); cited from earlier work
[5] = test system: transfected Chinese hamster ovary cells; settings: reversible by chemical inhibition (references 2, 3); cited from earlier work

For `CC(=O)O[C@@]12CO[C@@H]1C[C@H](O)[C@@]1(C)C(=O)[C@H](O)C3=C(C)[C@@H](OC(=O)[C@H](O)[C@@H](NC(=O)OC(C)(C)C)c4ccccc4)C[C@@](O)([C@@H](OC(=O)c4ccccc4)[C@H]21)C3(C)C` [docetaxel], the overall median survival ([1]; 5 patients homozygote variant (CYP1B1*3/*3)) was 7.5 months, the overall median survival ([1]; 7 wild type plus 13 heterozygotes (CYP1B1*1/*1 and *1/*3 pooled)) was 15.3 months and the progression free survival ([1]; CYP1B1*3/*3 variant, P=0.13 versus pooled genotypes) was 3.3 months. For the same compound, the “decrease in median survival time” value ([1]; CYP1B1*3/*3 versus pooled wild type and heterozygotes, P=0.012) was 7.8 months, the progression free survival ([1]; pooled wild type and heterozygous genotypes, P=0.13 versus CYP1B1*3/*3) was 6.2 months and the clearance ([2]; patients homozygous for the variant allele, 95% CI 26.9 to 37.0 L/h) was 533 mL/min. The clearance ([2]; patients homozygous or heterozygous for the wild-type allele, 95% CI 27.5 to 48.9 L/h) was 637 mL/min, the “metabolism by CYP1B1” value (CYP1B1 [3]) was “not directly metabolized by CYP1B1” and the “inhibition of CYP1B1-mediated ethoxyresorufin O-deethylation” value (CYP1B1 [4]) was “competitively inhibits”. The “effect of CYP1B1 overexpression on cellular sensitivity to docetaxel” value [5] was “docetaxel resistance”.
